4 compounds from patent publication US20060172987A1 (DSM IP Assets B.V., priority 2003, published 2006) can be followed below.

What all share (type): physicochemical
Data set [1] is described as follows: Tapped density (USP 24, method II). The settings on record: for Tap. dens.: crystalline powder as obtained, trihydrate. The text has this: In a preferred embodiment, the crystalline powder according to the invention has a tapped density higher than 0.6 g/ml, preferably higher than 0.7, more preferably higher than 0.8 g/ml. An increased tapped density improves the flow properties. Moreover, an increased tapped density is advantageous as more products may be fed into a certain volume, for instance a capsule. There is no specific upper limit for the tapped density. The tapped density may be less than 1.2 g/ml, for instance less than 1.1 g/ml, for instance less than 1.0 g/ml. The tapped density is preferably determined according to USP 24, method II, (page 1914).

A short description of data set [2]: Particle size distribution by laser diffraction (Malvern particle sizer 2600 C). The text has this:
The d10 and d50 are known ways for indicating a particle size distribution, d50 referring to the value for the particle size such that 50 vol. % of the crystals has a particle size smaller than said value. The d50 is also referred to as average volume-based grain size. Likewise, d10 refers to the value for the particle size such that 10 vol. % of the crystals has a particle size smaller than said value. A preferred way for determining d10 and d50 is laser diffraction, preferably using Malvern equipment. A suitable apparatus for […] determining d10 and d50 is a Malvern particle sizer 2600 C obtainable from Malvern Instruments Ltd., Malvern UK, using an objective of f=300 mm and a beam length of is 14.30 mm. A polydisperse analysis model may advantageously be used.
The particle size distribution (including d10 and d50) was determined using a Malvern particle sizer 2600 C with objective f=300 mm, malvern sample measurement unit PS1 and a Malvern dry powder feeder PS 64. The beam length was 14.30 mm. A polydisperse analysis model was used.

Data set [3] can be described thus: Bulk density (USP 24, method I). The settings on record: for Bulk dens.: crystalline powder as obtained, trihydrate. The text has this: The crystalline powder according according to this aspect of the invention has improved flow properties, without having to be subjected to processes such as granulation, compactation, agglomeration or aggregation, has good colour properties, good stability and a high dissolution rate. If it would still be desired to subject the crystalline powder to processes such as granulation, compactation, agglomeration or aggregation, and the like, applying these processes is facilitated due to the improved flow properties of the crystalline powder according to this aspect of the invention. Moreover, an increased quantity of crystalline powder can be fed into a capsule of a given size. The bulk density is preferably determined according to USP 24, method I, (page 1913). Preferably, of the crystalline powder has a bulk density higher than 0.46 g/ml, preferably higher than 0.5 g/ml, more preferably higher than 0.55 g/ml. This further improves the flow properties. Moreover, an increased bulk density is advantageous as crystalline powder may be fed into a certain volume, for instance a capsule. There is no specific upper limit for the bulk density. The bulk density may be less than 0.8 g/ml, for instance less than 0.7 g/ml.

Data set [4] in a line: Free water content by dynamic vapour sorption (adsorption isotherm, VTI-SGA 100). The settings on record: equilibrium relative humidity of 30%, 25° C. The text has this:
The free water content of a sample can be determined by dynamic vapour sorption. The underlying principle is that the weight of the sample is monitored while it is contacted with air having a preconditioned relative humidity. As a result of water take-up or water release the sample weight will change until the equilibrium situation has been established. The sample weight in this equilibrium situation is the sample weight corresponding to the equilibrium relative humidity, the latter being the relative humidity of the preconditioned air with which the sample is contacted. By repeating this procedure for different values of the equilibrium relative humidity, the sample weight can be determined as a function of the equilibrium relative humidity. […]
As used herein, the free water content measured at an equilibrium relative humidity of 30% and at a temperature of 25° C. is in particular defined as ((w30-w10)/w10)*100%, wherein […]
The free water content, including the values for w30 and w10 are preferably determined using dynamic vapour sorption, for instance using a VTI-SGA 100 vapour sorption analyser. […]
Adsorption isotherms were determined using dynamic vapour sorption, using a VTI-SGA 100 vapour sorption analyser. […]

[5] abbreviates: crystalline powder as obtained, trihydrate.
Where [6] appears, read: overheads fraction after air jet sieving, 75 μm screen, 10 minutes.

Structures are written as SMILES.

The compound `CC1(C)S[C@@H]2[C@H](NC(=O)[C@H](N)c3ccc(O)cc3)C(=O)N2[C@H]1C(=O)O.O.O.O` [Example V, amoxicillin trihydrate] came in with a Tap. dens. in data set [1] of 0.47 g/mL. Besides, in data set [2] (setting [5]), the d10 came out at 17.4 μm and the d50 is 66.3 μm. In data set [3], this compound had a Bulk dens. of 0.25 g/mL.
Compound `CC1(C)S[C@@H]2[C@H](NC(=O)[C@H](N)c3ccc(O)cc3)C(=O)N2[C@H]1C(=O)O.O.O.O` [Ex. I, amoxicillin trihydrate] gave a Tap. dens. in data set [1] of 0.73 g/mL. In addition, in data set [2] (setting [5]), the d10 came out at 11.4 μm and the d50 is 43.1 μm. The Bulk dens. in data set [3] is 0.51 g/mL. Besides, in data set [4], the “Free water content at ERH = 30%” value worked out at 0.05 wt. %.
In data set [2] (crystalline powder as obtained), `CC1(C)S[C@@H]2[C@H](NC(=O)[C@H](N)c3ccc(O)cc3)C(=O)N2[C@H]1C(=O)O` [Comp. A, amoxicillin, reference compound] returned a d10 of 2.7 μm and a d50 of 8.3 μm. Besides, the “Free water content at ERH = 30%” value in data set [4] is on record as 0.11 wt. %.
`CC1(C)S[C@@H]2[C@H](NC(=O)[C@H](N)c3ccc(O)cc3)C(=O)N2[C@H]1C(=O)O.O.O.O` [Example VI, amoxicillin trihydrate]: the Tap. dens. in data set [1] was found to be 0.79 g/mL. Further, in data set [1] (setting [6]), the tapped density came out at 0.74 g/mL. The d10 in data set [2] (setting [5]) came out at 19 μm; in data set [2] (setting [6]), 36 μm. Moreover, the d50 is recorded as 61 μm in data set [2] (setting [5]) and 86 μm in data set [2] (setting [6]). This compound displayed a Bulk dens. in data set [3] of 0.58 g/mL. For the same compound, in data set [3] (setting [6]), the bulk density came out at 0.59 g/mL.
